Reference: ChEMBL document CHEMBL4152253, “New developments in non-quinolone-based antibiotics for the inhibiton of bacterial gyrase and topoisomerase IV” (Eur J Med Chem, 2018)

What was measured:
DNA gyrase = DNA gyrase (Staphylococcus aureus, UniProt P0A0K8+P20831); assay: Inhibition of Staphylococcus aureus DNA gyrase; format: protein-complex assay
DNA gyrase subunit B = DNA gyrase subunit B (Staphylococcus aureus, UniProt P0A0K8); assay: Inhibition of Staphylococcus aureus GyrB
DNA gyrase subunit B, sequence (P0A0K8 whole entry): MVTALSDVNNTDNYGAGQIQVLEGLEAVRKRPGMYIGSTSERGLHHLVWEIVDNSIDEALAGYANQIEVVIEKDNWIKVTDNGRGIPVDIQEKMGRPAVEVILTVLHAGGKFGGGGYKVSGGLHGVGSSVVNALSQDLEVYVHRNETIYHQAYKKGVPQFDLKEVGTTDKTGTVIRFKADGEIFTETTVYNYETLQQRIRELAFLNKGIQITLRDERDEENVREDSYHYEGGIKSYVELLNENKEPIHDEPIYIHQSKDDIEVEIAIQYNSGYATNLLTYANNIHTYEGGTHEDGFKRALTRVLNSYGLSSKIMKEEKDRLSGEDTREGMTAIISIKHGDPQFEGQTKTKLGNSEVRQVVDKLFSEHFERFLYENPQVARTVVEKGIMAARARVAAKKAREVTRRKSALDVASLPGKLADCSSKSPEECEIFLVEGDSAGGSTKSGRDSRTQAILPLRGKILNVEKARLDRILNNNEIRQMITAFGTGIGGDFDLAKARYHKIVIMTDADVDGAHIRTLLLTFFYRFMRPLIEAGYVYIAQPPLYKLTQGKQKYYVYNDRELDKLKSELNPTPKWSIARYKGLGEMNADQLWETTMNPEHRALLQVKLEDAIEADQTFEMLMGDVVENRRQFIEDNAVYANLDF

DNA gyrase, sequence (P0A0K8 whole entry): as above
DNA gyrase, sequence (P20831 whole entry): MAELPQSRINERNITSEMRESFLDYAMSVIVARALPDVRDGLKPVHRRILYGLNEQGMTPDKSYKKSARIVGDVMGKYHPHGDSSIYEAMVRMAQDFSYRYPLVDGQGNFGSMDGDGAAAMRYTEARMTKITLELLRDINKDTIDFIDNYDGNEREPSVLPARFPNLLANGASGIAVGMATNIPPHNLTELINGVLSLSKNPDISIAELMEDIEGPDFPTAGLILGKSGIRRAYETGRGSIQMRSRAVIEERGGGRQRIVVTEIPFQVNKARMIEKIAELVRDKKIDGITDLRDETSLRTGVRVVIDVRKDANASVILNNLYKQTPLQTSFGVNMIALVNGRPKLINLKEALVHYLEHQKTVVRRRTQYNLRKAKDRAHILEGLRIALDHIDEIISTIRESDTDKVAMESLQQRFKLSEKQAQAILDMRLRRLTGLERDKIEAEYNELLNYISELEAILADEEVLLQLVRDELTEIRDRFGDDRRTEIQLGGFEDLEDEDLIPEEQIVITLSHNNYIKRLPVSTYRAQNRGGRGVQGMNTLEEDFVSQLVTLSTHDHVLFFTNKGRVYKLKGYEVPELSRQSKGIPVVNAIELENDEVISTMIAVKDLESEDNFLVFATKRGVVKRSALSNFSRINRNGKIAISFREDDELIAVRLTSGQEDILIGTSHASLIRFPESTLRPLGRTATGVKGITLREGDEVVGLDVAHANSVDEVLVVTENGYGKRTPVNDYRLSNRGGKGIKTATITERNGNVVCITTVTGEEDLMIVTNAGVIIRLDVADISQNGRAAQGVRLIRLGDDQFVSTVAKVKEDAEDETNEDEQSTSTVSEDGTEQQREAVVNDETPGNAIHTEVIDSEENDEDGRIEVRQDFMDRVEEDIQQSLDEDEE

Row | SMILES | IC50 (DNA gyrase) | IC50 (DNA gyrase subunit B)
1 | Cc1occc1C(=O)NNC(=S)NC(=O)c1ccccc1 | 15 µM | –
2 | C=C1CC[C@@H](O[C@H]2C[C@@](O)([C@H](C)NC(=O)c3[nH]c(C)c(Cl)c3Cl)[C@H](O)[C@@H](C)O2)[C@@H]2C=C[C@H](C)C(/C(O)=C3\C(=O)[C@H](C(C)C)N([C@H]4O[C@H](C)[C@H](OC(N)=O)[C@H](OC(C)=O)[C@@H]4OC)C3=O)[C@@H]12 (some centres not stated) [KIBDELOMYCIN] | – | 0.009 µM
